System: MV-4-11 cells
Assay: Gene expression microarray analysis (Affymetrix PrimeView) and GSEA
Format: cell-based, human
Parameters: RFU PODN (11730768_x_at) / Fold change /veh PODN (11730768_x_at) / RFU LINC00158 (11744669_a_at) / Fold change /veh LINC00158 (11744669_a_at) / RFU DUSP10 (11751237_a_at) / Fold change /veh DUSP10 (11751237_a_at) / RFU ID3 (11757404_x_at) / Fold change /veh ID3 (11757404_x_at) / RFU PLEKHG5 (11737974_s_at) / Fold change /veh PLEKHG5 (11737974_s_at) / RFU LRRC4B (11730491_at) / Fold change /veh LRRC4B (11730491_at) / RFU GIMAP4 (11747438_a_at) / Fold change /veh GIMAP4 (11747438_a_at) / RFU KRT8 (11758183_x_at) / Fold change /veh KRT8 (11758183_x_at) / RFU CNN1 (11734310_a_at) / Fold change /veh CNN1 (11734310_a_at) / RFU VPS37D (11726825_at) / Fold change /veh VPS37D (11726825_at) / RFU C10orf10 (11716522_x_at) / Fold change /veh C10orf10 (11716522_x_at) / RFU KIR2DL2 /// KIR2DL4 /// KIR2DL5A /// KIR2DL5B /// KIR2DS1 /// KIR2DS2 /// KIR2DS3 /// KIR2DS4 /// KIR3DL3 /// KIR3DL3 /// KIR3DS1 (11738374_at) / Fold change /veh KIR2DL2 /// KIR2DL4 /// KIR2DL5A /// KIR2DL5B /// KIR2DS1 /// KIR2DS2 /// KIR2DS3 /// KIR2DS4 /// KIR3DL3 /// KIR3DL3 /// KIR3DS1 (11738374_at) / RFU C1QL1 (11718748_at) / Fold change /veh C1QL1 (11718748_at) / RFU TMPRSS4 (11747572_a_at) / Fold change /veh TMPRSS4 (11747572_a_at) / RFU HAMP (11756126_x_at) / Fold change /veh HAMP (11756126_x_at) / RFU RNFT2 (11725882_a_at) / Fold change /veh RNFT2 (11725882_a_at) / RFU NR4A2 (11747474_a_at) / Fold change /veh NR4A2 (11747474_a_at) / RFU ABCC12 (11746883_a_at) / Fold change /veh ABCC12 (11746883_a_at) / RFU TMEM136 (11760407_x_at) / Fold change /veh TMEM136 (11760407_x_at) / RFU CLDN22 /// WWC2 (11732394_at) / Fold change /veh CLDN22 /// WWC2 (11732394_at) / RFU HLA-DPB1 (11760878_x_at) / Fold change /veh HLA-DPB1 (11760878_x_at) / RFU SPINT1 (11716480_a_at) / Fold change /veh SPINT1 (11716480_a_at) / RFU GAP43 (11754022_s_at) / Fold change /veh GAP43 (11754022_s_at) / RFU A4GNT (11735810_at) / Fold change /veh A4GNT (11735810_at) / RFU PRB3 (11715151_x_at) / Fold change /veh PRB3 (11715151_x_at) / RFU TUBB4B (11761932_at) / Fold change /veh TUBB4B (11761932_at) / RFU CAPN14 (11732068_a_at) / Fold change /veh CAPN14 (11732068_a_at) / RFU TMCC2 (11721928_a_at) / Fold change /veh TMCC2 (11721928_a_at) / RFU IRGQ (11745062_a_at) / Fold change /veh IRGQ (11745062_a_at) / RFU FAM174B (11720279_a_at) / Fold change /veh FAM174B (11720279_a_at) / RFU TMPRSS4 (11748680_a_at) / Fold change /veh TMPRSS4 (11748680_a_at) / RFU FAM212B (11763350_a_at) / Fold change /veh FAM212B (11763350_a_at) / RFU PLEKHG5 (11743358_a_at) / Fold change /veh PLEKHG5 (11743358_a_at) / RFU ZSCAN30 (11745921_a_at) / Fold change /veh ZSCAN30 (11745921_a_at) / RFU CMKLR1 (11741424_a_at) / Fold change /veh CMKLR1 (11741424_a_at) / RFU LOC101060620 /// MAPK8IP1 (11723275_at) / Fold change /veh LOC101060620 /// MAPK8IP1 (11723275_at) / RFU SPTSSB (11747773_x_at) / Fold change /veh SPTSSB (11747773_x_at) / RFU PRSS12 (11739890_at) / Fold change /veh PRSS12 (11739890_at) / RFU BIN1 (11741810_x_at) / Fold change /veh BIN1 (11741810_x_at) / RFU WNT11 (11732464_a_at) / Fold change /veh WNT11 (11732464_a_at) / RFU C10orf10 (11716521_a_at) / Fold change /veh C10orf10 (11716521_a_at) / RFU C5orf56 (11738089_at) / Fold change /veh C5orf56 (11738089_at) / RFU CYB561 (11721691_x_at) / Fold change /veh CYB561 (11721691_x_at) / RFU ANKRD19P (11752326_a_at) / Fold change /veh ANKRD19P (11752326_a_at) / RFU OR2T12 /// OR2T33 /// OR2T8 (11738714_s_at) / Fold change /veh OR2T12 /// OR2T33 /// OR2T8 (11738714_s_at) / RFU VCAN (11748164_a_at) / Fold change /veh VCAN (11748164_a_at) / RFU JSRP1 (11732532_at) / Fold change /veh JSRP1 (11732532_at) / RFU KRTAP10-11 (11738290_x_at) / Fold change /veh KRTAP10-11 (11738290_x_at) / RFU MYO3A (11730013_a_at) / Fold change /veh MYO3A (11730013_a_at) / RFU EBF3 (11725865_a_at) / Fold change /veh EBF3 (11725865_a_at) / RFU CAMK2N1 (11719241_x_at) / Fold change /veh CAMK2N1 (11719241_x_at) / RFU C5orf56 (11738088_a_at) / Fold change /veh C5orf56 (11738088_a_at) / RFU OLFML3 (11715873_a_at) / Fold change /veh OLFML3 (11715873_a_at) / RFU LOC100653217 /// NTM (11731650_a_at) / Fold change /veh LOC100653217 /// NTM (11731650_a_at) / RFU MAPK11 (11762145_a_at) / Fold change /veh MAPK11 (11762145_a_at) / RFU FIZ1 (11724087_x_at) / Fold change /veh FIZ1 (11724087_x_at) / RFU OASL (11726364_x_at) / Fold change /veh OASL (11726364_x_at) / RFU SOX15 (11748057_x_at) / Fold change /veh SOX15 (11748057_x_at) / RFU CD79A (11719716_a_at) / Fold change /veh CD79A (11719716_a_at) / RFU HIST1H1D (11736915_at) / Fold change /veh HIST1H1D (11736915_at) / RFU CASKIN2 (11723855_a_at) / Fold change /veh CASKIN2 (11723855_a_at) / RFU LOC730098 (11760151_x_at) / Fold change /veh LOC730098 (11760151_x_at) / RFU OR4N2 (11742367_at) / Fold change /veh OR4N2 (11742367_at) / RFU PRRT2 (11749266_a_at) / Fold change /veh PRRT2 (11749266_a_at) / RFU SNX32 (11753110_a_at) / Fold change /veh SNX32 (11753110_a_at) / RFU CDHR5 (11726645_a_at) / Fold change /veh CDHR5 (11726645_a_at) / RFU RCAN1 (11760418_a_at) / Fold change /veh RCAN1 (11760418_a_at) / RFU FAM167A (11723789_a_at) / Fold change /veh FAM167A (11723789_a_at) / RFU FAM26E (11764081_at) / Fold change /veh FAM26E (11764081_at) / RFU ISYNA1 (11749810_s_at) / Fold change /veh ISYNA1 (11749810_s_at) / RFU ACY1 (11761880_at) / Fold change /veh ACY1 (11761880_at) / RFU 11764098_at / Fold change /veh 11764098_at / RFU SAMD14 (11745864_x_at) / Fold change /veh SAMD14 (11745864_x_at) / RFU NPB (11741838_a_at) / Fold change /veh NPB (11741838_a_at) / RFU TMPRSS6 (11731388_a_at) / Fold change /veh TMPRSS6 (11731388_a_at) / RFU KRTAP10-2 (11738614_at) / Fold change /veh KRTAP10-2 (11738614_at) / RFU ARHGAP8 /// PRR5-ARHGAP8 (11727945_x_at) / Fold change /veh ARHGAP8 /// PRR5-ARHGAP8 (11727945_x_at) / RFU KRTAP5-7 /// NADSYN1 (11734609_at) / Fold change /veh KRTAP5-7 /// NADSYN1 (11734609_at) / RFU RASL12 (11751679_a_at) / Fold change /veh RASL12 (11751679_a_at) / RFU CDKN2B (11736163_a_at) / Fold change /veh CDKN2B (11736163_a_at) / RFU PRF1 (11729649_at) / Fold change /veh PRF1 (11729649_at) / RFU, ZNF638 /// ZNF638-IT1 / Fold change vs veh, ZNF638 /// ZNF638-IT1 / RFU, PANK3 / Fold change vs veh, PANK3 / RFU, SH3YL1 / Fold change vs veh, SH3YL1 / RFU, ZEB2 / Fold change vs veh, ZEB2 / RFU, NRIP1 / Fold change vs veh, NRIP1 / RFU, PTTG1IP / Fold change vs veh, PTTG1IP / RFU, CAPN2 / Fold change vs veh, CAPN2 / RFU, MED14 / Fold change vs veh, MED14 / RFU, SNORA58 / Fold change vs veh, SNORA58 / RFU, C1orf63 / Fold change vs veh, C1orf63 / RFU, LRRFIP1 / Fold change vs veh, LRRFIP1 / RFU, NDUFAF7 / Fold change vs veh, NDUFAF7 / RFU, SLC12A2 / Fold change vs veh, SLC12A2 / RFU, IBTK / Fold change vs veh, IBTK / RFU, ESF1 / Fold change vs veh, ESF1 / Fold change vs veh, TMEM50B / RFU, TAOK1 / Fold change vs veh, TAOK1 / RFU, ACBD3 / Fold change vs veh, ACBD3 / RFU, TMA16 / Fold change vs veh, TMA16 / RFU, RWDD3 / Fold change vs veh, RWDD3 / RFU, BCAT1 / Fold change vs veh, BCAT1 / RFU, EDEM3 / Fold change vs veh, EDEM3 / RFU, TMEM33 / Fold change vs veh, TMEM33 / RFU, WDR75 / Fold change vs veh, WDR75 / RFU, AHCTF1 / Fold change vs veh, AHCTF1 / RFU, TFRC / Fold change vs veh, TFRC / RFU, ZDHHC17 / Fold change vs veh, ZDHHC17 / RFU, NOM1 / Fold change vs veh, NOM1 / RFU, ARL8B / Fold change vs veh, ARL8B / RFU, ZBTB11 / Fold change vs veh, ZBTB11 / RFU, TAMM41 / Fold change vs veh, TAMM41 / RFU, KIAA1704 /// LOC100996395 / Fold change vs veh, KIAA1704 /// LOC100996395 / RFU, ING1 / Fold change vs veh, ING1 / RFU, TRMT61B / Fold change vs veh, TRMT61B / RFU, FUBP3 / Fold change vs veh, FUBP3 / RFU, TP53 / Fold change vs veh, TP53 / RFU, TNKS2 / Fold change vs veh, TNKS2 / RFU, ZFP14 / Fold change vs veh, ZFP14 / RFU, ACTR2 / Fold change vs veh, ACTR2 / RFU, PPP3R1 / Fold change vs veh, PPP3R1 / RFU, PIK3R1 / Fold change vs veh, PIK3R1 / RFU, HNRNPA1 / Fold change vs veh, HNRNPA1 / RFU, RNF170 / Fold change vs veh, RNF170 / RFU, ZNF28 / Fold change vs veh, ZNF28 / RFU, RNGTT / Fold change vs veh, RNGTT / RFU, OGT / Fold change vs veh, OGT / RFU, BRD1 / Fold change vs veh, BRD1 / RFU, MARS / Fold change vs veh, MARS / RFU, ZNF655 / Fold change vs veh, ZNF655 / RFU, FAHD1 / Fold change vs veh, FAHD1 / RFU, BDP1 / Fold change vs veh, BDP1 / RFU, LRRCC1 / Fold change vs veh, LRRCC1 / RFU, ARID1A / Fold change vs veh, ARID1A / RFU, ZNF146 / Fold change vs veh, ZNF146 / RFU, ZNF330 / Fold change vs veh, ZNF330 / RFU, GPN3 / Fold change vs veh, GPN3 / RFU, C9orf123 / Fold change vs veh, C9orf123 / RFU, N4BP2L2 / Fold change vs veh, N4BP2L2 / RFU, ARFIP1 / Fold change vs veh, ARFIP1 / RFU, FAM179B / Fold change vs veh, FAM179B / RFU, BCL10 / Fold change vs veh, BCL10 / RFU, UHRF1BP1L / Fold change vs veh, UHRF1BP1L / RFU, BET1 / Fold change vs veh, BET1 / RFU, CNOT2 / Fold change vs veh, CNOT2 / RFU, ZNF268 / Fold change vs veh, ZNF268 / Fold change vs veh, ZNF507 / RFU, DGCR2 / Fold change vs veh, DGCR2 / RFU, WDSUB1 / Fold change vs veh, WDSUB1 / Fold change vs veh, HSP90B1 /// MIR3652 / RFU, ADSS / Fold change vs veh, ADSS / RFU, GK / Fold change vs veh, GK / RFU, ZNF148 / Fold change vs veh, ZNF148 / RFU, TAF9 / Fold change vs veh, TAF9 / RFU, SLC1A5 / Fold change vs veh, SLC1A5 / RFU, SLMO2 / Fold change vs veh, SLMO2 / RFU, ABCC4 / Fold change vs veh, ABCC4 / RFU, LOC101060439 /// RAP1B / Fold change vs veh, LOC101060439 /// RAP1B / RFU, RFX7 / Fold change vs veh, RFX7 / RFU, GTPBP10 / Fold change vs veh, GTPBP10 / RFU, CNEP1R1 / Fold change vs veh, CNEP1R1 / RFU, BIVM-ERCC5 /// ERCC5 / Fold change vs veh, BIVM-ERCC5 /// ERCC5 / RFU, ILF3 / Fold change vs veh, ILF3 / RFU 11762660_at / Fold change /veh 11762660_at / RFU VCAN (11757783_s_at) / Fold change /veh VCAN (11757783_s_at) / RFU DDX43 (11728927_at) / Fold change /veh DDX43 (11728927_at) / RFU KRT8 (11758188_x_at) / Fold change /veh KRT8 (11758188_x_at) / RFU NKD1 (11759106_at) / Fold change /veh NKD1 (11759106_at) / RFU SRD5A1 (11742802_a_at) / Fold change /veh SRD5A1 (11742802_a_at) / RFU TPSAB1 /// TPSB2 (11721975_s_at) / Fold change /veh TPSAB1 /// TPSB2 (11721975_s_at) / RFU GSTM3 (11746129_a_at) / Fold change /veh GSTM3 (11746129_a_at) / RFU IL23R (11737362_x_at) / Fold change /veh IL23R (11737362_x_at) / RFU TMEM51 (11727254_a_at) / Fold change /veh TMEM51 (11727254_a_at) / RFU PIWIL2 (11732686_x_at) / Fold change /veh PIWIL2 (11732686_x_at) / RFU ORM1 (11744905_x_at) / Fold change /veh ORM1 (11744905_x_at) / RFU CCDC152 (11743942_at) / Fold change /veh CCDC152 (11743942_at) / RFU ECM1 (11717891_a_at) / Fold change /veh ECM1 (11717891_a_at) / RFU IL23R (11748794_a_at) / Fold change /veh IL23R (11748794_a_at) / RFU TNFAIP8L3 (11732012_x_at) / Fold change /veh TNFAIP8L3 (11732012_x_at) / RFU MBOAT4 (11741988_at) / Fold change /veh MBOAT4 (11741988_at) / RFU 11764193_at / Fold change /veh 11764193_at / RFU TMEM53 (11763286_at) / Fold change /veh TMEM53 (11763286_at) / RFU MAGEB2 (11727129_at) / Fold change /veh MAGEB2 (11727129_at) / RFU TMEM200A (11744735_a_at) / Fold change /veh TMEM200A (11744735_a_at) / RFU CCDC152 (11751479_a_at) / Fold change /veh CCDC152 (11751479_a_at) / RFU FAM211A (11726209_a_at) / Fold change /veh FAM211A (11726209_a_at) / RFU RGS16 (11746705_a_at) / Fold change /veh RGS16 (11746705_a_at) / RFU VCAN (11755009_s_at) / Fold change /veh VCAN (11755009_s_at) / RFU RHOB (11743442_s_at) / Fold change /veh RHOB (11743442_s_at) / RFU RGS16 (11720943_a_at) / Fold change /veh RGS16 (11720943_a_at) / RFU RGS16 (11720944_at) / Fold change /veh RGS16 (11720944_at) / RFU, VPS4B / Fold change vs veh, VPS4B / RFU, CREB1 / Fold change vs veh, CREB1 / RFU, DNAJC13 / Fold change vs veh, DNAJC13 / RFU, GNAQ / Fold change vs veh, GNAQ / RFU, CDK5R1 / Fold change vs veh, CDK5R1 / RFU, ZRANB3 / Fold change vs veh, ZRANB3 / RFU, CUL4A / Fold change vs veh, CUL4A / RFU, CCNY / Fold change vs veh, CCNY / RFU, UFL1 / Fold change vs veh, UFL1 / RFU, COG3 / Fold change vs veh, COG3 / RFU, DIAPH2 / Fold change vs veh, DIAPH2 / RFU, SKA2 / Fold change vs veh, SKA2 / RFU, AFF3 / Fold change vs veh, AFF3 / RFU, LMF1 / Fold change vs veh, LMF1 / RFU, IPO11 / Fold change vs veh, IPO11 / RFU, DFFB / Fold change vs veh, DFFB / RFU, FOXP1 / Fold change vs veh, FOXP1 / RFU, CARD8 / Fold change vs veh, CARD8 / RFU, STRN3 / Fold change vs veh, STRN3 / RFU, ADK / Fold change vs veh, ADK / RFU, RASSF2 / Fold change vs veh, RASSF2 / RFU, WIPF1 / Fold change vs veh, WIPF1 / RFU, LARP1B / Fold change vs veh, LARP1B / RFU, RASA1 / Fold change vs veh, RASA1 / RFU, RB1 / Fold change vs veh, RB1 / RFU, PPFIA1 / Fold change vs veh, PPFIA1 / RFU, MAT2A / Fold change vs veh, MAT2A / RFU, CCT5 / Fold change vs veh, CCT5 / RFU, WDR92 / Fold change vs veh, WDR92 / RFU, CUX1 / Fold change vs veh, CUX1 / RFU, TTC7A / Fold change vs veh, TTC7A / RFU, TMEM135 / Fold change vs veh, TMEM135 / RFU, DEPTOR / Fold change vs veh, DEPTOR / RFU, CPM / Fold change vs veh, CPM / RFU, DNAJB6 / Fold change vs veh, DNAJB6 / RFU, CACNA2D3 / Fold change vs veh, CACNA2D3 / RFU, DTX4 / Fold change vs veh, DTX4 / RFU, TFCP2 / Fold change vs veh, TFCP2 / RFU, GMCL1 /// GMCL1P1 / Fold change vs veh, GMCL1 /// GMCL1P1 / RFU, AEBP2 / Fold change vs veh, AEBP2 / RFU, SNHG1 /// SNORD22 /// SNORD25 /// SNORD26 /// SNORD27 /// SNORD28 /// SNORD29 /// SNORD31 / Fold change vs veh, SNHG1 /// SNORD22 /// SNORD25 /// SNORD26 /// SNORD27 /// SNORD28 /// SNORD29 /// SNORD31 / Fold change (Aza/veh), C12orf56 (ProbeSet 11735607_a_at) / Fold change (ACY-1035/veh), C12orf56 (ProbeSet 11735607_a_at) / Fold change (Aza/veh), FGFR1OP (ProbeSet 11751329_s_at) / Fold change (ACY-1035/veh), FGFR1OP (ProbeSet 11751329_s_at) / Fold change (Aza/veh), VPS36 (ProbeSet 11739960_a_at) / Fold change (ACY-1035/veh), VPS36 (ProbeSet 11739960_a_at) / RFU SYPL1 (11715823_x_at) / Fold change /veh SYPL1 (11715823_x_at) / RFU IGFBP7 (11715501_s_at) / Fold change /veh IGFBP7 (11715501_s_at) / RFU REEP3 (11722064_at) / Fold change /veh REEP3 (11722064_at) / RFU IGLL1 (11728026_x_at) / Fold change /veh IGLL1 (11728026_x_at): dose or concentration left out as unconfirmed
Settings: ProbeSet 11743580_s_at; LIST B

SMILES: Nc1ccc(-c2cccs2)cc1NC(=O)c1ccc2c(c1)cc(C1CC1)n2CCN1CCOCC1 [ACY-1035]
- Fold change vs veh, ACTR2: 0.83

Source: article PMC5218480 (PLoS ONE, 2017)
